Laboratory results taken from US8211436B2, “Anticancer vaccine and diagnostic methods and reagents” (University of Pittsburgh—Of the Commonwealth System of …, priority 2001, dated 2012).

What was measured:
HLA-A2.1 = biological target: T1, HLA-A2.1 (Homo sapiens, UniProt P04439, D140Y/D185E/D98H/E176V/E277Q/G131W/G231S/I119V/I121R/I166T/I218V/L300P/L318F/N151K/N90K/P208A/P217A/Q86G/Q94H/R138H/R169H/T345S); test: HLA Class I stabilization assay on T2 cells; conditions: 20 mg/ml peptide, 18-20 hours, MA2.1 staining, >1 indicates binding
T1 construct: Peptide-induced stabilization of HLA-A2.1 molecules on T2 cells; endogenous in cells; host or cells: T2 cells
Description: HLA Class I stabilization assays. Peptide-induced stabilization of HLA-A2.1 molecules on T2 cells was done as previously described (Zeh et al., Hum. Immunol., 39(2), 79-86 (1994)). 2×10^5 T2 cells were incubated with […] of the indicated synthetic peptides in […] human B2m (Calbiochem, La Jolla, Calif.) for 18-20 hours at room temperature. The cells were then stained with the HLA-A2.1-specific antibody, MA2.1, for 45 minutes, washed with FACS Buffer (PBS, 5% FBS, and 0.01% sodium azide), and stained with a secondary FITC-conjugated anti-IgG antibody (Biosource International, Camarillo, Calif.). The cells were fixed in 4% formaldehyde prior to flow cytometry analysis. The negative control consisted of T2 cells without peptide. […] (SEQ ID NO:11). Flow cytometric analysis was done using a FACScan flow cytometer (Becton-Dickinson).

[1] = tested on: CD8+ T cells from an HLA-A*0201 healthy donor; test: IFN-γ ELISPOT, naive CD8+ T cells of a healthy donor primed in vitro to synthetic cyclin B1 peptides; type: cell-based, human; conditions: for antigen-specific IFN-γ secretion by CD8+ T cells: healthy HLA-A2.1+ donor, after several rounds of restimulation (fourth)
Description: (§1) IFN-γ ELISPOT Assays. IFN-g ELISPOT assays were conducted as previously described (Herr et al., J. Immunol. Methods, 191(2), 131-42 (1996)). Briefly, nitrocellulose plates (Millipore, Bedford, Mass.) were coated with the anti-IFN-γ capture mAb 1-D1K (MabTech, Stockholm, Sweden) overnight at 4° C. For assays using dendritic cells as APCs, DCs were loaded with […] of the indicated peptides for 2-6 hrs, and mixed with autologous T cells at a DC:T ratio of 1:10 for 20 hours at 37° C. For assays using autologous PBMCs as APCs, PBMCs were irradiated at 3000 Rads, loaded with […] of peptides for 4 hours, and mixed with autologous T cells at an APC:T ratio of 1:5 for 40 hours at 37° C. The T cells were seeded at 3×10^3-1×10^5 cells/well. All assays were done in serum-free AIM-V medium (Gibco Life Technologies, Grand Island, N.Y.). The plates were then washed in PBS+0.1% Tween and stained with anti-IFN-γ mAb 7-B6-1 (Mabtech) for 2 hours at 37° C. The plates were washed, and the avidin-peroxidase complex (Vectastain ABC Kit, Vector Laboratories) was added to the plates for 1 hour. The plates were then developed using AEC (Sigma) substrate, and spots were quantified microscopically with an inverted phase-contrast microscope (Carl Zeiss, Hallbergmoos, Germany) along with a computer-assisted image analysis system (KS ELISPOT). For HLA Class I blocking experiments, the W6/32 antibody was added to the APCs for 30-45 minutes prior to the incubation with the T cells.
(§2) Priming naïve CD8^+ T cells from a healthy donor to cyclin B1 peptides in vitro. Naïve CD8^+ T cells and in vitro generated dendritic cells were purified as described above in Example 1. 2×10^4 dendritic cells were loaded overnight with […]/well peptide in 96-well U-bottom plates (Falcon, Franklin lakes, NJ) and mixed with 2×10^5 autologous naïve CD8^+ T cells the next day in the presence of 2 ng/ml IL-1b (R & D Systems, Minneapolis, Minn.), 20 U/ml IL-2 (DuPont, Wilmington, Del.), and 10 U/ml IL-4 (Schering Plough). Depending on growth kinetics, T cells were fed every 3-4 days with 10 U/ml IL-2 and 5 U/ml IL-4. T cells were restimulated every 7-10 days using peptide-loaded autologous macrophages.

[2] = tested on: PBMCs from HLA-A2+ breast cancer patients; test: IFN-γ ELISPOT, PBMCs of breast cancer patients with cyclin B1 peptides; type: cell-based, human
Description: as §1
(§3) Stimulating CD8^+ T cells from breast cancer and SCCHN patients with cyclin B1 peptides in vitro. PBMCs from cancer patients were X-irradiated at 3000 Rads, loaded with […] of the indicated peptides for 2-4 hours, and mixed with autologous PBMCs in the presence of 20 U/ml IL-2 (DuPont). The T cell cultures were fed every 3-4 days with 10 U/ml IL-2, and restimulated every 10-12 days, if necessary, using peptide-loaded autologous irradiated PBMCs. All T cell cultures were grown in RPMI medium (ICN, Costa Mesa, Calif.) supplemented with 10% human AB sera (Gemini Products, Calabasas, Calif.), L-glutamine, and penicillin/streptomycin (Life Technologies).

[3] = tested on: PBMCs from HLA-A*0201 SCCHN patients; test: IFN-γ ELISPOT, PBMCs of SCCHN patients with cyclin B1 peptides; type: cell-based, human; conditions: for peptide-specific T cells, IFN-γ ELISPOT: SCCHN Patient A, absence of any in vitro stimulation; for HLA Class I-restricted T cell response, IFN-γ ELISPOT: SCCHN Patient B; for T cell response, IFN-γ ELISPOT: SCCHN Patient D; for blocking of the response with anti-Class I antibody: SCCHN Patient C
Description: as §1, §3

MS-A2/CD80 tumor = test: CTL assay, peptide-sensitized T cells against MS-A2/CD80; type: cell-based, human; conditions: SCCHN Patient A T cells, target MS-A2/CD80
Description: as §3
(§4) Cytotoxicity assays. 1-2×10^6 target cells were labeled with 50 mCi of Na2^51CrO4 (Amersham, Arlington Heights, Ill.) for 90 minutes at 37° C. The labeled cells were then washed three times and plated at 1×10^3 cells/well in a 96-well V-bottom plate (Costar, Cambridge, Mass.) with various numbers of effector T cells. […] Supernatants were harvested using a Skatron harvesting press (Skatron Instruments, Sterling, Va.) and counted on a Cobra II series auto gamma counting system (Packard, Meriden, Conn.). […] Percent specific lysis was calculated from the following formula: % specific lysis=100×(experimental release−spontaneous release)/(maximum release−spontaneous release).

MS-A2 tumor = test: CTL assay, peptide-sensitized T cells against MS-A2; type: cell-based, human; set-up: killing of the original tumor by peptide-specific T cells: dose or concentration left out as unconfirmed
Description: as §2
Stimulating CD8^+ T cells from breast cancer and SCCHN patients with cyclin B1 peptides in vitro. PBMCs from cancer patients were X-irradiated at 3000 Rads, loaded with […] of the indicated peptides for 2-4 hours, and mixed with autologous PBMCs in the presence of 20 U/ml IL-2 (DuPont). […]
Cytotoxicity assays. […] Supernatants were harvested using a Skatron harvesting press (Skatron Instruments, Sterling, Va.) and counted on a Cobra II series auto gamma counting system (Packard, Meriden, Conn.). […] Percent specific lysis was calculated from the following formula: % specific lysis=100×(experimental release−spontaneous release)/(maximum release−spontaneous release).

K562 = test: CTL assay, peptide-sensitized T cells against K562 (LAK control); type: cell-based, human; conditions: SCCHN Patient A T cells, target K562
Description: as §3, §4

[4] = breast cancer Patient A, one in vitro stimulation
[5] = breast cancer Patient C, no in vitro stimulation
[6] = breast cancer Patient D, no in vitro stimulation

## AGYLMELCC (cyclin-derived polypeptide) [SEQ ID NO:4, tumor-derived cyclin B1 9-mer peptide]
HLA-A2.1
  HLA-A2.1 Binding (MFI of T2 cells loaded with peptide / MFI of T2 cells with no peptide): 1.61 X-Fold increase
[1]
  antigen-specific IFN-γ secretion by CD8+ T cells: detected
[1]; healthy donor
  blocking of the T cell response by anti-Class I antibody W6/32: blocked
[2]; [4]
  T cell response, IFN-γ ELISPOT: strong HLA Class I-restricted secondary T cell responses
[2]; [5]
  T cell response, IFN-γ ELISPOT: peptide-specific HLA Class I-restricted T cell responses
[2]; [6]
  T cell response, IFN-γ ELISPOT: strong HLA Class I-restricted T cell responses
[2]; breast cancer Patients E and F
  T cell response, IFN-γ ELISPOT: did not respond
[3]
  peptide-specific T cells, IFN-γ ELISPOT: peptide-specific T cells also were detected
  HLA Class I-restricted T cell response, IFN-γ ELISPOT: HLA Class I-restricted T cell responses
  T cell response, IFN-γ ELISPOT: appeared specific
MS-A2/CD80 tumor
  lysis of tumor by T cells sensitized to the peptide: able to lyse
MS-A2 tumor; SCCHN Patient A T cells, target MS-A2
  lysis of tumor by T cells sensitized to the peptide: to a lesser extent
MS-A2 tumor; healthy donor T cells primed with high peptide concentration
  killing of the original tumor by peptide-specific T cells: unable to kill the original tumor
K562
  lysis by T cells sensitized to the peptide: not

## AGYLMELCF (cyclin-derived polypeptide) [SEQ ID NO:3, tumor-derived cyclin B1 9-mer peptide]
HLA-A2.1
  HLA-A2.1 Binding (MFI of T2 cells loaded with peptide / MFI of T2 cells with no peptide): 1.42 X-Fold increase
[3]
  HLA Class I-restricted T cell response, IFN-γ ELISPOT: HLA Class I-restricted T cell responses

## AGYLMELCFA (cyclin-derived polypeptide) [SEQ ID NO:6, tumor-derived cyclin B1 10-mer peptide]
HLA-A2.1
  HLA-A2.1 Binding (MFI of T2 cells loaded with peptide / MFI of T2 cells with no peptide): 2.08 X-Fold increase
[1]
  antigen-specific IFN-γ secretion by CD8+ T cells: not

## AGYLMELCM (cyclin-derived polypeptide) [SEQ ID NO:2, tumor-derived cyclin B1 9-mer peptide]
HLA-A2.1
  HLA-A2.1 Binding (MFI of T2 cells loaded with peptide / MFI of T2 cells with no peptide): 1.48 X-Fold increase
[1]
  antigen-specific IFN-γ secretion by CD8+ T cells: not
[3]
  HLA Class I-restricted T cell response, IFN-γ ELISPOT: not
  blocking of the response with anti-Class I antibody: could be blocked

## AGYLMELCMA (cyclin-derived polypeptide) [SEQ ID NO:5, tumor-derived cyclin B1 10-mer peptide]
HLA-A2.1
  HLA-A2.1 Binding (MFI of T2 cells loaded with peptide / MFI of T2 cells with no peptide): 1.58 X-Fold increase
[1]
  antigen-specific IFN-γ secretion by CD8+ T cells: not
[3]
  T cell response, IFN-γ ELISPOT: appeared specific

## AGYLMELCV (cyclin-derived polypeptide) [SEQ ID NO:1, tumor-derived cyclin B1 9-mer peptide]
HLA-A2.1
  HLA-A2.1 Binding (MFI of T2 cells loaded with peptide / MFI of T2 cells with no peptide): 1.60 X-Fold increase
[1]
  antigen-specific IFN-γ secretion by CD8+ T cells: not
[2]; breast cancer Patient B (HLA-A*0206), two in vitro stimulations
  T cell response, IFN-γ ELISPOT: weak secondary response
[3]
  HLA Class I-restricted T cell response, IFN-γ ELISPOT: not

## AKYLMELTM (cyclin-derived polypeptide) [SEQ ID NO:7, human (HeLa) cyclin B1 peptide from the database]
HLA-A2.1
  HLA-A2.1 Binding (MFI of T2 cells loaded with peptide / MFI of T2 cells with no peptide): 2.28 X-Fold increase
[2]; [4]
  T cell response, IFN-γ ELISPOT: strong HLA Class I-restricted secondary T cell responses
[2]; [5]
  T cell response, IFN-γ ELISPOT: peptide-specific HLA Class I-restricted T cell responses
[2]; breast cancer Patient D
  blocking of the response by anti-MHC Class I antibody: blocked
[2]; [6]
  T cell response, IFN-γ ELISPOT: lower responses
[2]; breast cancer Patients E and F
  T cell response, IFN-γ ELISPOT: did not respond
[3]
  peptide-specific T cells, IFN-γ ELISPOT: peptide-specific T cells also were detected
  HLA Class I-restricted T cell response, IFN-γ ELISPOT: HLA Class I-restricted T cell responses
  T cell response, IFN-γ ELISPOT: appeared specific
MS-A2/CD80 tumor
  lysis of tumor by T cells sensitized to the peptide: able to lyse

## AKYLMELTML (cyclin-derived polypeptide) [SEQ ID NO:8, human (HeLa) cyclin B1 peptide from the database]
HLA-A2.1
  HLA-A2.1 Binding (MFI of T2 cells loaded with peptide / MFI of T2 cells with no peptide): 2.25 X-Fold increase
[2]; [4]
  T cell response, IFN-γ ELISPOT: strong HLA Class I-restricted secondary T cell responses
[3]
  blocking of the response with anti-Class I antibody: could be blocked

## ILKEPGSHV (HIV-POL-derived polypeptide) [reference compound]
[1]
  antigen-specific IFN-γ secretion by CD8+ T cells: not
[2]; [4]
  T cell response, IFN-γ ELISPOT: no recognition
[2]; [6]
  T cell response, IFN-γ ELISPOT: lower responses
